The subject of one assay is Venus-FtsA. Put plainly: Measurement of compound effects on FtsA localization. The format is cell-based, Caulobacter crescentus. Particulars: C. crescentus, 20 minutes. The method, then:
Measurement of compound effects on FtsA: For experiments with C. crescentus expressing Venus-FtsA, a synchronized population of cells was used. First, an overnight culture was grown with kanamycin (5 μg/mL) and glucose (0.02% w/v). The presence of glucose suppressed the transcription of venus-ftsA from its xylose-inducible promoter. 2 mL of this culture was diluted into 25 mL of fresh PYE with the antibiotic and glucose, and incubated further to achieve an absorbance of ˜0.6 (λ=600 nm). Once the cells reached mid-exponential phase, the culture was centrifuged for 10 minutes at 6000 rpm and 4° C. The cell pellet was resuspended in ice-cold M2 (a final volume of approximately 1000 μL) and 750 μL of this suspension was added to an equal-volume of sterile Percol (Sigma Aldrich). After thoroughly mixing the solution, it was centrifuged for 20 minutes at 11,000 rpm and 4° C. Upon centrifugation, the bottom band (swarmer cells) was taken and the cells were washed in ice-chilled M2 solution (1 mL). The washed cell pellet was suspended in fresh PYE containing kanamycin (no glucose, 6 mL). The cell suspension was incubated for 20 minutes and then xylose (0.03% w/v) was added to induce the expression of venus-ftsA. Cells were grown for another 20 minutes and subsequently treated with compounds. The cells were incubated for 20 minutes again in the presence of the compounds prior to imaging. Thus, the total time of xylose induction was 40 minutes, and the total time of compound treatment was 20 minutes. At this time point (60 minutes post synchrony), the majority of the cells were at the beginning of cell division. Imaging conditions and data analysis were identical to the conditions described for MipZ-YFP, except for a set of criteria used for defining ‘wildtype’ protein localization. ‘Wildtype’ was defined as 1) Venus-FtsA is unipolar, meaning there was one peak, and the peak resided within a polar region; and 2) Venus-FtsA was at the mid-cell, meaning there was one peak and it was within the mid-cell region (40-60% of the normalized cell length). […]

Assay [1] has as its system E. coli BW25113 ΔtolC. Put plainly: MIC of bacterial growth, macrodilution (Table 2). The format is cell-based, Escherichia coli. The method, then: (§1) Bacterial strains and growth conditions. Luria-Bertani (LB) media (10 g/L tryptone, 10 g/L NaCl, 5 g/L yeast extract, pH 7.2) was used to grow B. subtilis 168, S. aureus FRI100, and P. aeruginosa K1115 strains. For P. aeruginosa PAO1 and K1119 strains and two E. coli BW25113 strains, M8 minimal media (241 mg/L MgSO4, 4 mg/L glucose, 5 mg/L casamino acids, 12.8 g/L Na2HPO4.7H2O, 3 g/L KH2PO4, and 0.5 g/L NaCl) was used. PYE media (2 g/L peptone, 1 g/L yeast extract, 0.8 mM MgSO4, and 0.5 mM CaCl2) was used for culturing C. crescentus cells at 30° C. All cultures were grown at 37° C., except for C. crescentus (30° C.). All cultures were grown while shaking at 200 rpm.
(§2) Determination of the minimum inhibitory concentration (MIC) of bacterial growth. The MIC of various organisms in liquid media was determined using the macrodilution method according to the NCCLS guidelines. For the starting inoculum, cultures were diluted to contain approximately 5×10^5 cells/mL in growth media. To create a two-fold dilution series for the macrodilution technique, each compound was added to the first culture tube (4 mL total volume) at the highest concentration. 2 mL of this culture was diluted into an equal volume of inoculated media (a two-fold dilution). The final volume for each culture was 2 mL.

For the next assay, the system named is E. coli BW25113. Put plainly: MIC of bacterial growth, macrodilution (Table 2). Format: cell-based. Particulars: Escherichia coli. On the procedure:
as §1, §2

The next assay concerns P. aeruginosa K1115. Put plainly: MIC of bacterial growth, macrodilution (Table 2). Format: cell-based. Particulars: Pseudomonas aeruginosa. The method, then: as §1, §2
Another assay concerns P. aeruginosa K1119. The experiment in a line: MIC of bacterial growth, macrodilution (Table 2). Particulars: Pseudomonas aeruginosa. Format: cell-based. On the procedure:
as §1, §2

The subject of the next assay is P. aeruginosa PAO1. Put plainly: MIC of bacterial growth, macrodilution (Table 2). Particulars: Pseudomonas aeruginosa. The format is cell-based. On the procedure:
as §1, §2

The next assay deals with A. baumannii. The experiment in a line: MIC of bacterial growth (Table 2). The format is cell-based. Particulars: Acinetobacter baumannii; A. baumannii clinical isolate (Table 2). On the procedure: as §2
The next assay concerns E. tarda. Put plainly: MIC of bacterial growth (Table 2). Particulars: Edwardsiella tarda; E. tarda clinical isolate (Table 2). Format: cell-based. On the procedure:
as §2

The next assay has as its system K. pneumoniae. Put plainly: MIC of bacterial growth (Table 2). Format: cell-based. Particulars: Klebsiella pneumoniae; K. pneumoniae clinical isolate (Table 2). On the procedure:
as §2

In another assay the test system is M. morganii. Put plainly: MIC of bacterial growth (Table 2). Format: cell-based. Particulars: Morganella morganii; M. morganii clinical isolate (Table 2). On the procedure: as §2
Another assay deals with S. boydii. The experiment in a line: MIC of bacterial growth (Table 2). Format: cell-based. As to conditions: Shigella boydii; S. boydii clinical isolate (Table 2). On the procedure:
as §2

Another assay relates to S. typhimurium. The experiment in a line: MIC of bacterial growth (Table 2). Format: cell-based. Particulars: Salmonella enterica; S. typhimurium clinical isolate (Table 2). The method, then:
as §2

The test system of a further assay is V cholera. Put plainly: MIC of bacterial growth (Table 2). As to conditions: Vibrio cholerae. The format is cell-based. The method, then:
as §2

In assay [2] the test system is E. coli BW25113 ΔtolC. The experiment in a line: MIC of DCAP analogs, LB media, macrodilution (CLSI). Format: cell-based. Particulars: Escherichia coli. The method, then:
Luria-Bertani (LB) media (10 g/L tryptone, 10 g/L NaCl, 5 g/L yeast extract, pH 7.0) was used to grow all the strains represented in Tables 5 and 6. All the cultures were grown at 37° C. All the E. coli strains were grown while shaking at 200 rpm and the clinical pathogens were statically incubated. […]

A further assay has as its system C. crescentus cells. Put plainly: Cell lysis observed by phase contrast microscopy. The format is cell-based, Caulobacter crescentus. On the procedure: The lysed cells appear fainter in phase contrast images, compared to un-lysed cells (e.g., a cell in the white circle).
At high concentrations of DCAP (≥75 μM), cell lysis within minutes after treatment was observed (FIG. 4).

In general, MIC refers to the smallest concentration in the dilution series that meets the test's criterion for growth inhibition.

Some results are limits rather than exact numbers.

Take `N#CC(C#N)=NNc1cccc(Cl)c1` [CCCP, carbonyl cyanide m-chlorophenyl hydrazone]: the figures for the Venus-FtsA localization result with Venus-FtsA (CCCP at its minimum inhibitory concentration (5 μM)) and in the assay with Venus-FtsA (higher concentration of CCCP (25 μM)) were “did not alter the localization of FtsA” and “had a significant effect on the position of FtsA”, respectively.
On to `OCC(CO)(CO)NCC(O)Cn1c2ccc(Cl)cc2c2cc(Cl)ccc21` (stereo not shown) [DCAP, 2-((3-(3,6-dichloro-9H-carbazol-9-yl)-2-hydroxypropyl)amino)-2-(hydroxymethyl)propane-1,3-diol], for which the “Reduction of MIC on deleting tolC in E. coli BW25113” value with E. coli BW25113 ΔtolC [1] (BW25113 vs BW25113 ΔtolC) is 4 fold. For the same compound, the MIC is 20 µM in the assay on E. coli BW25113 ΔtolC [1] (Escherichia coli, BW25113); 80 µM with E. coli BW25113; 80 µM in the assay with P. aeruginosa K1115; 160 µM with P. aeruginosa K1119; 160 µM in the assay on P. aeruginosa PAO1; 200 µM in the assay on A. baumannii. The MIC in the assay with E. tarda is 200 µM; with K. pneumoniae, 100 µM; in the assay with M. morganii, 200 µM; in the assay on S. boydii it was 100 µM; in the assay with S. typhimurium, 50 µM; with V cholera, 100 µM. In addition, the MIC with E. coli BW25113 ΔtolC [2] (BW25113) was 20 µM; in the assay on E. coli BW25113 ΔtolC [2] (BW25113, read-out: MIC (ΔtolC E. coli)), 20 µM. The “Concentration at which cell lysis was observed within minutes after treatment” value in the assay with C. crescentus cells is ≥ 75 µM. In addition, the Venus-FtsA localization result in the assay on Venus-FtsA (treated with DCAP) is reported as “exhibited multiple peaks of FtsA fluorescence (≥2)”.

Source of the values: patent US10314816B2, “Antimicrobial compounds, compositions and methods of use thereof” (Wisconsin Alumni Research Foundation, priority 2012, dated 2019).
